# Measured values from US12152270B2, “Neurotransmitter transport in probiotics” (Iowa State University Research Foundation, Inc., priority 2017, dated 2024).
# Columns and labels:
# [1] = test system: PMAT-like uptake in L. salivarius biofilms; test: IDT307 fluorophore uptake (PMAT-like) in L. salivarius biofilms; type: cell-based, Lactobacillus salivarius; conditions: for uptake of IDT307-associated fluorescence: 100 μM; for attenuation of IDT307 fluorophore uptake: 1 mg/ml, 24 hour biofilm; for inhibition of IDT307 uptake: early and late biofilms
# Excerpt: For measurement of PMAT-like function, the IDT307 fluorophore-based Neurotransmitter Uptake Assay Kit (product #R8173, Molecular Devices, Sunnyvale, CA, USA) was used with modification. As it is intended for studies with mammalian cells, the kit recommends the use of phenol red-free Hank's Balanced Salt Solution (HBSS). Phenol red-free Iscove's Modified Dulbecco's Medium (IMDM; product #21056-023, Life Technologies, Carlsbad, CA, USA) was substituted for HBSS. […] IMDM was selected as it is a nutrient-rich, protein-free medium used in tissue culture that allows for robust growth of a wide variety of bacterial species in the absence of any protein additives common to most microbiology media.
# (§1) At the start of the assay, 0.2 ml of stationary phase overnight bacterial growth was inoculated into 9.8 ml of pre-warmed MRS, thoroughly mixed, and 0.2 ml aliquots added to individual wells of Corning flat clear-bottomed 96 well microplates (product #3904, Corning, Inc., Corning, NY, USA). Plates were then placed into a 37° C. humidified incubator. Following static incubation for either 6 or 24 hours, plates were removed from the incubator and the well supernatants were gently removed leaving the bacterial biofilm intact on the bottom surface of the individual clear plate wells. Subsequently, the PMAT-specific fluorophore IDT307 (Molecular Devices) or the OCT-specific fluorophore ASP^+ (Sigma-Aldrich) dissolved in IMDM and pre-warmed to 37° C. was gently added to appropriate wells (added along the well side so as not to disturb the biofilm). The plate was immediately placed into a BioTek Synergy H1 reader (Winooski, VT, USA) and measured using Gen5 software at the time intervals shown in the FIGS. 4-7. All assays were done at 37° C. unless otherwise noted and reads were performed as bottom fluorescence in relative fluorescence units (RFU). For IDT307, the chemical and masking dye were supplied pre-measured and the amount of IMDM used as a diluent was the same as indicated for the use of HBSS. […] Drug Metab Dispos. 2015; 43(11):1773-80, herein incorporated by reference, with the minor modification that the fluorophore/masking dye combination were prepared as follows: 100 μl of a 2 mg ASP^+ stock solution per ml of distilled water was first added to 9.9 ml of IMDM and mixed, followed by the addition of 10 μl of a 10 mM Trypan blue solution. The excitation/emission wavelengths used for IDT307 and ASP^+, respectively, were 440 nm/520 nm and 475 nm/609 nm.
# (§2) Plates were prepared as above in Example 4 and following 6 hours (FIGS. 8A and B for PMAT and OCT respectively) or 24 hours (FIGS. 8C and D for PMAT and OCT respectively) of incubation the media was gently removed and replaced with 100 μl of pre-warmed IMDM media with or without different concentrations of fluoxetine. The concentrations of fluoxetine were 0.3125 mM, 0.625 mM, 1.25 mM, or 2.5 mM. The plate was then incubated at 37° C. for 30 minutes. Following incubation, 100 μl of pre-warmed fluorophore was added to the appropriate wells. The plate was then immediate placed into the fluorescence reader and measured at 37° C.
# (§3) Two other antidepressant drugs that are chemically unrelated to fluoxetine, duloxetine and amitriptyline, were tested for their action on PMAT- and OCT-like functionalities in Lactobacilli to determine if they may also be used as inhibitors. Cells were grown in 96-well plates for 24 hours to allow for biofilm formation as above. […] IDT307 or ASP^+ was then used to measure the effects of each antidepressant drug on the cells ability to take up the fluorophore.
# [2] = test system: OCT-like uptake in L. salivarius biofilms; test: ASP+ fluorophore uptake (OCT-like) in L. salivarius biofilms; type: cell-based, Lactobacillus salivarius; conditions: for inhibition of ASP+ uptake: early and late biofilms
# Experimental: as §1, §2, §3
# [3] = test system: OCT-like uptake in L. reuteri; test: ASP+ fluorophore uptake (OCT-like) in L. reuteri; type: cell-based, Lactobacillus reuteri; conditions: for attenuation of ASP+ fluorophore uptake: 2 mg/ml, 24 hour biofilm
# Excerpt: The fluorophore ASP^+[4-(4-(diethylamino)styryl)-N-methylpyridinium iodide] was obtained from Sigma Chemical Company (Sigma #D4318) and used as described in Duan et al., Drug Metabolism and Disposition, volume 43, pages 1773-1780, 2015 (herein incorporated by reference) with a slight modification in the ratio of ASP^+ and Trypan blue used.
# To verify if OCT-like uptake was responsible for the influx of ASP^+ in Lactobacilli, L. reuteri was pre-treated with D-22, an OCT inhibitor. In brief, Lactobacilli reuteri (obtained from American Type Culture Collection, #23272) were grown overnight at 37° C. in an aerobic environment in flat-bottomed 96-well plates in MRS medium. Following overnight incubation, the medium in each well was carefully removed in order to not overtly disturb the biofilm and a final concentration of 20 μM D-22 dissolved in IMDM or control medium was added. The plate was then incubated for 20 minutes at 37° C. in an aerobic environment. Next, ASP^+ fluorophore dissolved in IMDM was added and the plate was then placed into a BioTek Synergy H1 plate reader at 37° C. and read continuously for a total of 6 hours.
# as §3
# recombinant PMAT = biological target: T1, recombinant PMAT (Homo sapiens, UniProt Q7RTT9); conditions: 20 μM, HEK293 embryonic kidney cells; cited from earlier work
# T1 construct: host or cells: HEK293 embryonic kidney cells (transfected, in the earlier report)
# T1 sequence (Q7RTT9 1-530): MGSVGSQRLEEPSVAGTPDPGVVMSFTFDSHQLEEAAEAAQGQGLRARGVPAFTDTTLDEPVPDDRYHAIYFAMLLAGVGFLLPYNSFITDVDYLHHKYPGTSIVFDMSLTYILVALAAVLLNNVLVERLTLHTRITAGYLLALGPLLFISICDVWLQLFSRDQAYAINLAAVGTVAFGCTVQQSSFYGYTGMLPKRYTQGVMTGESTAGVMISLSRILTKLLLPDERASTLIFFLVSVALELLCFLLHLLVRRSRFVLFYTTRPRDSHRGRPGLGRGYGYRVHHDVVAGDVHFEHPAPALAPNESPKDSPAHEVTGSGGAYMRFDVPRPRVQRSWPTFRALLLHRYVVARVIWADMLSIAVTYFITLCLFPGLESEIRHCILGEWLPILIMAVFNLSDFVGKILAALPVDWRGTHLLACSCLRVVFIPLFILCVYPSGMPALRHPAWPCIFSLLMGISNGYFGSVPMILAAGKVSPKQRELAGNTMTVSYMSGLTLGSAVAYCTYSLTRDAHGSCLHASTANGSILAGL
# recombinant OCTs = conditions: 20 μM, HEK293 embryonic kidney cells; cited from earlier work
# [4] = test system: PMAT-like uptake in L. reuteri; conditions: 2 mg/ml, 24 hour biofilm
# Experimental: as §3
# [5] = test system: microbial communities of mice; test: In vivo administration of fluoxetine, 16S rRNA sequencing of microbial communities; conditions: male mice, oral, daily for 28 days
# Experimental: Fluoxetine was administered on a daily basis by the oral route to male mice for 28 days in order to determine if any modulation in microbial communities could be obtained.
# To classify the microbial communities, the genomes of isolated bacteria were sequenced and compared. Genomic DNA isolation was obtained using the PowerSoil DNA Isolation Kit (MoBio, Carlsbad, CA) on cecal and fecal samples. Assays were performed in accordance with the manufacturer's protocol with the following modifications: samples were incubated at 70° C. for 10 minutes immediately after addition of the C1 solution and the initial vortex step was extended to 20 minutes to thoroughly homogenize the samples. The purified bacterial genomic DNA extracts were quantified using a Qubit 2.0 Fluorometer (Life Technologies, Carlsbad, CA), and stored at −20° C. in 10 mM Tris buffer. For Illumina sequencing, bacterial genomic DNA was amplified using the Earth Microbiome Project barcoded primer set, adapted for the Illumina HiSeq2000 and MiSeq by adding nine extra bases in the adapter region of the forward amplification primer that support paired-end sequencing. The V4 region of the 16S rRNA gene (Illumina, 515F-806R) was amplified with region-specific primers that included the Illumina flowcell adapter sequences. The reverse amplification primer also contained a twelve base barcode sequence that supported pooling of up to 2,167 different samples in each lane. Each 25 μl PCR reaction contained 12 µl of MoBio PCR Water (Certified DNA-Free), 10 μl of 5 Prime HotMasterMix (1×), 1 μl of Forward Primer ([…], […]), 1 μl Golay Barcode Tagged Reverse Primer (5 μM concentration, […]), and […]. The conditions for PCR were as follows: 94° C. for 3 minutes to denature the DNA, with 35 cycles at 94° C. for 45 s, 50° C. for 60 s, and 72° C. for 90 s; with a final extension of 10 min at 72° C. to ensure complete amplification. The PCR amplicons were quantified using PicoGreen (Invitrogen) and a plate reader. Once quantified, different volumes of each of the products were pooled into a single tube so that each amplicon was represented equally. This pool was then cleaned up using UltraClean® PCR Clean-Up Kit (MoBIO), and quantified using the Qubit (Invitrogen). After quantification, the molarity of the pool was determined and diluted down to 2 nM, denatured, and then diluted to a final concentration of […] with a 10% PhiX spike for sequencing on the Illumina MiSeq.
# In total, 60 fecal samples, representing 20 samples for each time point (day 0, 15, and 28) with 10 samples for the control and treatment groups, respectively, were used for 16S rRNA gene amplicon sequencing using Illumina MiSeq with 151 bp paired-end sequencing technology. 16S rRNA gene PCR and library preparation and sequencing were completed at the Environmental Sample Preparation and Sequencing Facility at Argonne National Laboratory. Sequence analysis was performed using mothur version 1.39.3 following the mothur MiSeq SOP available at the mothur website. Briefly, contigs were joined with “make.contigs”, reads longer than 250 bp, harboring any ambiguous bases or with more than 8 consecutive homopolymers were excluded using “screen.seqs”. Reads were aligned to the SILVA NR128 reference database. Chimeric sequences were removed with “chimera.uchime” and the remaining reads were clustered into operational taxonomic units (OTUs) using a 97% similarity threshold and taxonomy was assigned to OTUs using the SILVA NR 128 reference database. […] For determination of differences between groups on community level, analysis of molecular variance (AMOVA) and analysis of similarity (ANOSIM) implemented in mothur were used. Heatmaps were generated with JColorGrid. For better taxonomic classification, the OTUs were searched against the 16S rRNA gene sequences of the Mouse Intestinal Bacterial Collection isolates (miBC) using BlastN.
# [6] = biofilms established over 24 hours
# [7] = concentrations higher than 0.625 mM
compound,measurement,setting,value
"CN(C)c1ccc(-c2cc[n+](C)cc2)cc1.[I-] [IDT307, 4-[p-(Dimethylamino)phenyl]-1-methylpyridinium iodide]",time of intracellular fluorescence decay after maximum,"[1]; 6 hour biofilms, 37° C.",2 to 3 h
same,time to maximum fluorescence intensity,"[1]; 6 hour biofilms, 37° C.",< 60 min
same,residence time of probe in biofilm,[1]; [6],> 6 h
"NC[C@H](O)c1ccc(O)c(O)c1 [NE, norepinephrine]",uptake of IDT307-associated fluorescence,[1]; 6 hour biofilms,markedly inhibited
"CCN(CC)c1ccc(C=Cc2cc[n+](C)cc2)cc1.[I-] [ASP^+, 4-(4-(diethylamino)styryl)-N-methylpyridinium iodide]",time of intracellular fluorescence decay after maximum,"[2]; 6 hour biofilms, 37° C.",2 to 3 h
same,time to maximum fluorescence intensity,"[2]; 6 hour biofilms, 37° C.",< 60 min
same,residence time of probe in biofilm,[2]; [6],> 6 h
NCCc1c[nH]c2ccc(O)cc12 [serotonin],uptake of IDT307-associated fluorescence,[1]; 6 hour biofilms,markedly inhibited
O=NO [sodium nitrite],uptake of IDT307-associated fluorescence,[1]; 6 hour biofilms,inhibited the rapid rise in IDT307-associated fluorescence
"CN(C)CCC=C1c2ccccc2CCc2ccccc21 [Amitriptyline, amitriptyline]",attenuation of IDT307 fluorophore uptake,[1],much stronger inhibitory effect
same,attenuation of ASP+ fluorophore uptake,[3],much stronger inhibitory effect
CCN1/C(=C/c2ccc3ccccc3[n+]2CC)C=Cc2ccccc21.[I-] [decynium-22],peak increase in IDT307 uptake,"[1]; 20 μM, early (6 hour) biofilms",blunted
same,peak increase in ASP+ uptake,"[2]; 20 μM, early (6 hour) biofilms",blunted
same,ability of the ASP+ fluorophore to enter into the cells (fluorescence),"[3]; 20 μM, 20 min pre-incubation, overnight biofilm, read 6 hours, all time points",reduced the ability of the ASP^+ fluorophore to enter into the cells
same,serotonin uptake through recombinant PMAT,recombinant PMAT,block serotonin uptake
same,serotonin uptake through recombinant OCTs,recombinant OCTs,block serotonin uptake
CNCC[C@H](Oc1cccc2ccccc12)c1cccs1 [duloxetine],attenuation of IDT307 fluorophore uptake,[1],some attenuation
same,attenuation of ASP+ fluorophore uptake,"[2]; 1 mg/ml, 24 hour biofilm",some attenuation
same,attenuation of IDT307 fluorophore uptake,[4],larger attenuation of fluorophore uptake
same,attenuation of ASP+ fluorophore uptake,[3],larger attenuation of fluorophore uptake
CNCCC(Oc1ccc(C(F)(F)F)cc1)c1ccccc1 (stereo not drawn) [fluoxetine],inhibition of IDT307 uptake,[1]; concentrations below 0.625 mM,concentration-dependent inhibition
same,inhibition of IDT307 uptake,[1]; [7],total inhibition
same,inhibition of ASP+ uptake,[2]; concentrations below 0.625 mM,concentration-dependent inhibition
same,inhibition of ASP+ uptake,[2]; [7],total inhibition
same,overall effect on microbial communities,[5],shift of microbial communities towards dysbiosis
same,decrease of Lactobacillus OTU17 abundance under treatment,[5]; fecal samples,7.4 fold
same,number of OTUs different between control and fluoxetine group,[5]; fecal samples,121 OTUs
same,species richness and diversity estimators vs control group,[5]; fecal samples,No statistical significant differences
same,abundance of Firmicutes relative to Bacteroidetes,[5]; phylum level,trended (p=0.08) to be more abundant than Bacteroidetes
same,whole community level comparison with control (AMOVA and ANOSIM),[5]; p=0.02 and p=0.05,statistically significant differences
